target: hPDE10A2 (Homo sapiens, UniProt Q9Y233); assay: biochemical; settings: human clone; 60 nM cAMP substrate; read-out: hPDE10A2 or rPDE10A2 pIC50 (converted)
Experimental: Rat recombinant PDE10A (rPDE10A2) was expressed in Sf9 cells using a recombinant rPDE10A baculovirus construct. Cells were harvested after 48 h of infection and the rPDE10A protein was purified by metal chelate chromatography on Ni-sepharose 6FF. Tested compounds were dissolved and diluted in 100% DMSO to a concentration 100 fold of the final concentration in the assay. Human recombinant PDE10A ([…]) was expressed in Sf9 cells using a recombinant hPDE10A baculovirus that was made and amplified in house. Cells were harvested after 72 h of infection and the hPDE10A protein was purified by metal chelate chromatography on Ni-sepharose. Compound dilutions (0.4 μl) were added in 384 well plates to 20 μl of incubation buffer (50 mM Tris pH 7.8, 8.3 mM MgCl2, 1.7 mM EGTA). 10 μl of rPDE10A or hPDE10A enzyme in incubation buffer was added and the reaction was started by addition of 10 μl substrate to a final concentration of 60 nM cAMP and […] ^3H-cAMP. The reaction was incubated for 60 minutes at room temperature. After incubation, the reaction was stopped with 20 μl of stop solution consisting of 17.8 mg/ml PDE SPA (scintillation proximity assay) beads. After sedimentation of the beads during 30 minutes the radioactivity was measured in a Perkin Elmer Topcount scintillation counter and results were expressed as cpm. For blanc values the enzyme was omitted from the reaction and replaced by incubation buffer. Control values were obtained by addition of a final concentration of 1% DMSO instead of compound. A best fit curve is fitted by a minimum sum of squares method to the plot of % of control value substracted with blanc value versus compound concentration and the half maximal inhibitory concentration (IC50) value is derived from this curve.

hPDE10A2, sequence (Q9Y233 267-1055): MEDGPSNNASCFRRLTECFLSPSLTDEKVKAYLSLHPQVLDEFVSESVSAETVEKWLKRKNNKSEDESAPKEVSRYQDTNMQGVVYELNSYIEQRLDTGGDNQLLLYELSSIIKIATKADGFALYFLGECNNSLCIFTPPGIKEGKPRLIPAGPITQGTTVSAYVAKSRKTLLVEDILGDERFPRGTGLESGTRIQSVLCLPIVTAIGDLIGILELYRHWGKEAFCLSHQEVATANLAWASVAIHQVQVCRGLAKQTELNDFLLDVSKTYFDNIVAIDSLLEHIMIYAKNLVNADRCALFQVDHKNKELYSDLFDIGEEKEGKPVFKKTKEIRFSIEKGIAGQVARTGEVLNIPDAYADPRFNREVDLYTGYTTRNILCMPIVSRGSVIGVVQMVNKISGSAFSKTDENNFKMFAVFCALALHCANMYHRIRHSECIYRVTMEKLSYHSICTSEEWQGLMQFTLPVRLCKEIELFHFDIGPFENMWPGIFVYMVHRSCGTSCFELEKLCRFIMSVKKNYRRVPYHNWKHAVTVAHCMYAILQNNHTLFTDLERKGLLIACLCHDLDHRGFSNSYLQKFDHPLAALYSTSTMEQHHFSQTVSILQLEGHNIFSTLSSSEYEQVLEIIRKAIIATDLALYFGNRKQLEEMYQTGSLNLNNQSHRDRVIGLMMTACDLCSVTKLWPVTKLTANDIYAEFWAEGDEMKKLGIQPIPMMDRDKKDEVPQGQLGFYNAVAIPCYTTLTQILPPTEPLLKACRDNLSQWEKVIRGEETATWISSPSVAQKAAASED

SMILES	IC50 [nM]
Cc1cc(C(C)N2CC[C@@H](C)[C@H](c3cc(C(F)F)nc4ncnn34)C2)cc(C)n1 (mixture of isomers) [Compound 1]	2950
Cc1cc([C@H](C)N2CC[C@@H](C)[C@H](c3cc(C(F)F)nc4ncnn34)C2)cc(C2CC2)n1 (relative stereo) [Compound 2]	2950
C[C@@H]1CCN([C@@H](C)c2ccc(C(F)(F)F)cc2)C[C@H]1c1cc(C(F)F)nc2ncnn12 (relative stereo) [Compound 6]	6310
C[C@@H]1CCN([C@H](C)c2ccc(C(F)(F)F)cc2)C[C@H]1c1cc(C(F)F)nc2ncnn12 (relative stereo) [Compound 7]	7760
Cc1cc([C@H](C)N2CC[C@@H](C)[C@H](c3cc(C(F)F)nc4ncnn34)C2)cc(Cl)n1 (single isomer, unassigned) [Compound 4]	1100
Cc1cc([C@@H](C)N2CC[C@@H](C)[C@H](c3cc(C(F)F)nc4ncnn34)C2)cc(Cl)n1 (single isomer, unassigned) [Compound 5]	1510
C[C@@H]1CCN([C@H](C)c2ccc3ncsc3c2)C[C@H]1c1cc(C(F)F)nc2ncnn12 (single isomer, unassigned) [Compound 12]	2040
C[C@@H]1CCN([C@@H](C)c2ccc3ncsc3c2)C[C@H]1c1cc(C(F)F)nc2ncnn12 (single isomer, unassigned) [Compound 13]	1480
Cc1cc(CN2CC[C@@H](C)[C@@](F)(c3cc(C(F)F)nc4ncnn34)C2)cc(C)n1 (single isomer, unassigned) [Compound 49]	> 10000
C[C@@H]1CCN(Cc2cccc(OC(F)(F)F)c2)C[C@H]1c1cc(C(F)F)nc2ncnn12 [Compound 24]	7240
C[C@@H]1CCN(Cc2ccc(C(F)(F)F)cc2)C[C@H]1c1cc(C(F)F)nc2ncnn12 [Compound 39]	6170

same assay, conditions: read-out: hPDE10A2 or rPDE10A2 Emax, human clone; 60 nM cAMP substrate

SMILES	Emax [%]
Cc1cc(C(C)N2CC[C@@H](C)[C@H](c3cc(C(F)F)nc4ncnn34)C2)cc(C)n1 (mixture of isomers) [Compound 1]	74
Cc1cc([C@H](C)N2CC[C@@H](C)[C@H](c3cc(C(F)F)nc4ncnn34)C2)cc(C2CC2)n1 (relative stereo) [Compound 2]	78
C[C@@H]1CCN([C@@H](C)c2ccc(C(F)(F)F)cc2)C[C@H]1c1cc(C(F)F)nc2ncnn12 (relative stereo) [Compound 6]	68
C[C@@H]1CCN([C@H](C)c2ccc(C(F)(F)F)cc2)C[C@H]1c1cc(C(F)F)nc2ncnn12 (relative stereo) [Compound 7]	47
Cc1cc([C@H](C)N2CC[C@@H](C)[C@H](c3cc(C(F)F)nc4ncnn34)C2)cc(Cl)n1 (single isomer, unassigned) [Compound 4]	88
Cc1cc([C@@H](C)N2CC[C@@H](C)[C@H](c3cc(C(F)F)nc4ncnn34)C2)cc(Cl)n1 (single isomer, unassigned) [Compound 5]	87
C[C@@H]1CCN([C@H](C)c2ccc3ncsc3c2)C[C@H]1c1cc(C(F)F)nc2ncnn12 (single isomer, unassigned) [Compound 12]	86
C[C@@H]1CCN([C@@H](C)c2ccc3ncsc3c2)C[C@H]1c1cc(C(F)F)nc2ncnn12 (single isomer, unassigned) [Compound 13]	85
Cc1cc(CN2CC[C@@H](C)[C@@](F)(c3cc(C(F)F)nc4ncnn34)C2)cc(C)n1 (single isomer, unassigned) [Compound 49]	12
C[C@@H]1CCN(Cc2cccc(OC(F)(F)F)c2)C[C@H]1c1cc(C(F)F)nc2ncnn12 [Compound 24]	58
C[C@@H]1CCN(Cc2ccc(C(F)(F)F)cc2)C[C@H]1c1cc(C(F)F)nc2ncnn12 [Compound 39]	65

target: T1, Human recombinant PDE2A (hPDE2A) (Homo sapiens, UniProt O00408); assay: In vitro assay PDE2A (SPA, 3H-cGMP); type: biochemical; settings: not given
T1 construct: made in house; host or cells: Sf9 insect cells (baculovirus)
Experimental: Human recombinant PDE2A (hPDE2A) was expressed in Sf9 cells using a recombinant rPDE10A baculovirus construct. Cells were harvested after 48 h of infection and the hPDE2A protein was purified by metal chelate chromatography on Ni-sepharose 6FF. Tested compounds were dissolved and diluted in 100% DMSO to a concentration 100 fold of the final concentration in the assay. Compound dilutions (0.4 μl) were added in 384 well plates to 20 μl of incubation buffer (50 mM Tris pH 7.8, 8.3 mM MgCl2, 1.7 mM EGTA). 10 μl of hPDE2A enzyme in incubation buffer was added and the reaction was started by addition of 10 μl substrate to a final concentration of 10 μM cGMP and 0.01 μCi ^3H-cGMP. The reaction was incubated for 45 minutes at room temperature. […] After sedimentation of the beads during 30 minutes the radioactivity was measured in a Perkin Elmer Topcount scintillation counter and results were expressed as cpm. For blanc values the enzyme was omitted from the reaction and replaced by incubation buffer. Control values were obtained by addition of a final concentration of 1% DMSO instead of compound.

T1 sequence (O00408 whole entry): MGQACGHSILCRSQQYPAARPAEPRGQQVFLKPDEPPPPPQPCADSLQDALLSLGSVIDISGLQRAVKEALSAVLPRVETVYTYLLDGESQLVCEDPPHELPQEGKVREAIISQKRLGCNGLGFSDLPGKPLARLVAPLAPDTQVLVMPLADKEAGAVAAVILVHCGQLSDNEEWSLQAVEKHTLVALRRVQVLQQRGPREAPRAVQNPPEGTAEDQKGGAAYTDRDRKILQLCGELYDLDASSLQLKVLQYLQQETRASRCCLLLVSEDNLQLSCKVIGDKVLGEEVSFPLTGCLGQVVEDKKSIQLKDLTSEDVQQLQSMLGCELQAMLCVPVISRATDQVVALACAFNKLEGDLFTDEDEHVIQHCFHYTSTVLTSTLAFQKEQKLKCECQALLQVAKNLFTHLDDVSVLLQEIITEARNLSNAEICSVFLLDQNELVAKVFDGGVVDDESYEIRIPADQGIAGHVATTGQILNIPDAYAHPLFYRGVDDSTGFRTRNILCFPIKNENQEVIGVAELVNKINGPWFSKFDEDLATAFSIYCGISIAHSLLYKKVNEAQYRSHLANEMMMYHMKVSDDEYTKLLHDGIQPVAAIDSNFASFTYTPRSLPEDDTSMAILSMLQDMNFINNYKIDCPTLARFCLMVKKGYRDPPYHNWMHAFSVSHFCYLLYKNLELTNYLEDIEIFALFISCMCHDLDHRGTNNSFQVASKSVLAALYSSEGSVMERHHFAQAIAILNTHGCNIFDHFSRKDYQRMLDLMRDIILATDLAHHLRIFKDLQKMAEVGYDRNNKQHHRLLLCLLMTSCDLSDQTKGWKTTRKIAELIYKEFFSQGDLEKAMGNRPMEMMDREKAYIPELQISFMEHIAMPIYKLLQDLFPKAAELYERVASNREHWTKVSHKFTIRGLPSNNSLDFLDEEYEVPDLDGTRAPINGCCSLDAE

SMILES	IC50 [nM]
C[C@@H]1CCN([C@@H](C)c2ccc(C(F)(F)F)cc2)C[C@H]1c1cc(C(F)F)nc2ncnn12 (relative stereo) [Compound 6]	178
C[C@@H]1CCN([C@H](C)c2ccc(C(F)(F)F)cc2)C[C@H]1c1cc(C(F)F)nc2ncnn12 (relative stereo) [Compound 7]	102
C[C@@H]1CCN([C@H](C)c2ccc3ncsc3c2)C[C@H]1c1cc(C(F)F)nc2ncnn12 (single isomer, unassigned) [Compound 12]	44.7
C[C@@H]1CCN([C@@H](C)c2ccc3ncsc3c2)C[C@H]1c1cc(C(F)F)nc2ncnn12 (single isomer, unassigned) [Compound 13]	58.9
C[C@@H]1CCN(Cc2cccc(OC(F)(F)F)c2)C[C@H]1c1cc(C(F)F)nc2ncnn12 [Compound 24]	692

same assay, conditions: 10 μM cGMP substrate

SMILES	Emax [%]
Cc1cc(C(C)N2CC[C@@H](C)[C@H](c3cc(C(F)F)nc4ncnn34)C2)cc(C)n1 (mixture of isomers) [Compound 1]	100
Cc1cc([C@H](C)N2CC[C@@H](C)[C@H](c3cc(C(F)F)nc4ncnn34)C2)cc(C2CC2)n1 (relative stereo) [Compound 2]	99
C[C@@H]1CCN([C@@H](C)c2ccc(C(F)(F)F)cc2)C[C@H]1c1cc(C(F)F)nc2ncnn12 (relative stereo) [Compound 6]	99
C[C@@H]1CCN([C@H](C)c2ccc(C(F)(F)F)cc2)C[C@H]1c1cc(C(F)F)nc2ncnn12 (relative stereo) [Compound 7]	98
Cc1cc([C@H](C)N2CC[C@@H](C)[C@H](c3cc(C(F)F)nc4ncnn34)C2)cc(Cl)n1 (single isomer, unassigned) [Compound 4]	99
Cc1cc([C@@H](C)N2CC[C@@H](C)[C@H](c3cc(C(F)F)nc4ncnn34)C2)cc(Cl)n1 (single isomer, unassigned) [Compound 5]	100
C[C@@H]1CCN([C@H](C)c2ccc3ncsc3c2)C[C@H]1c1cc(C(F)F)nc2ncnn12 (single isomer, unassigned) [Compound 12]	99
C[C@@H]1CCN([C@@H](C)c2ccc3ncsc3c2)C[C@H]1c1cc(C(F)F)nc2ncnn12 (single isomer, unassigned) [Compound 13]	98
Cc1cc(CN2CC[C@@H](C)[C@@](F)(c3cc(C(F)F)nc4ncnn34)C2)cc(C)n1 (single isomer, unassigned) [Compound 49]	86
C[C@@H]1CCN(Cc2cccc(OC(F)(F)F)c2)C[C@H]1c1cc(C(F)F)nc2ncnn12 [Compound 24]	96
C[C@@H]1CCN(Cc2ccc(C(F)(F)F)cc2)C[C@H]1c1cc(C(F)F)nc2ncnn12 [Compound 39]	99

same assay, conditions: 10 μM cGMP substrate; read-out: hPDE2A pIC50 (converted)

SMILES	IC50 [nM]
Cc1cc([C@H](C)N2CC[C@@H](C)[C@H](c3cc(C(F)F)nc4ncnn34)C2)cc(C2CC2)n1 (relative stereo) [Compound 2]	87.1
Cc1cc([C@H](C)N2CC[C@@H](C)[C@H](c3cc(C(F)F)nc4ncnn34)C2)cc(Cl)n1 (single isomer, unassigned) [Compound 4]	7.76
Cc1cc([C@@H](C)N2CC[C@@H](C)[C@H](c3cc(C(F)F)nc4ncnn34)C2)cc(Cl)n1 (single isomer, unassigned) [Compound 5]	77.6
C[C@@H]1CCN(Cc2ccc(C(F)(F)F)cc2)C[C@H]1c1cc(C(F)F)nc2ncnn12 [Compound 39]	170

same assay, conditions: hPDE2A pIC50, 10 μM cGMP substrate

SMILES	IC50 [nM]
Cc1cc(C(C)N2CC[C@@H](C)[C@H](c3cc(C(F)F)nc4ncnn34)C2)cc(C)n1 (mixture of isomers) [Compound 1]	20.9
Cc1cc(CN2CC[C@@H](C)[C@@](F)(c3cc(C(F)F)nc4ncnn34)C2)cc(C)n1 (single isomer, unassigned) [Compound 49]	2140

system: hPDE3B; assay: In vitro assay PDE3 (SPA, 3H-cAMP); type: biochemical, human; settings: 0.4 μM cAMP substrate

SMILES	hPDE3B pIC50
Cc1cc(C(C)N2CC[C@@H](C)[C@H](c3cc(C(F)F)nc4ncnn34)C2)cc(C)n1 (mixture of isomers) [Compound 1]	<5
Cc1cc([C@H](C)N2CC[C@@H](C)[C@H](c3cc(C(F)F)nc4ncnn34)C2)cc(C2CC2)n1 (relative stereo) [Compound 2]	<5
C[C@@H]1CCN([C@@H](C)c2ccc(C(F)(F)F)cc2)C[C@H]1c1cc(C(F)F)nc2ncnn12 (relative stereo) [Compound 6]	<5
C[C@@H]1CCN([C@H](C)c2ccc(C(F)(F)F)cc2)C[C@H]1c1cc(C(F)F)nc2ncnn12 (relative stereo) [Compound 7]	5.08
Cc1cc([C@H](C)N2CC[C@@H](C)[C@H](c3cc(C(F)F)nc4ncnn34)C2)cc(Cl)n1 (single isomer, unassigned) [Compound 4]	<5
Cc1cc([C@@H](C)N2CC[C@@H](C)[C@H](c3cc(C(F)F)nc4ncnn34)C2)cc(Cl)n1 (single isomer, unassigned) [Compound 5]	5.13
C[C@@H]1CCN([C@H](C)c2ccc3ncsc3c2)C[C@H]1c1cc(C(F)F)nc2ncnn12 (single isomer, unassigned) [Compound 12]	~5.07
C[C@@H]1CCN([C@@H](C)c2ccc3ncsc3c2)C[C@H]1c1cc(C(F)F)nc2ncnn12 (single isomer, unassigned) [Compound 13]	~5.02
Cc1cc(CN2CC[C@@H](C)[C@@](F)(c3cc(C(F)F)nc4ncnn34)C2)cc(C)n1 (single isomer, unassigned) [Compound 49]	<5

same assay, conditions: 0.4 μM cAMP substrate; in % (unit assumed)

SMILES	hPDE3B Emax
Cc1cc(C(C)N2CC[C@@H](C)[C@H](c3cc(C(F)F)nc4ncnn34)C2)cc(C)n1 (mixture of isomers) [Compound 1]	45
Cc1cc([C@H](C)N2CC[C@@H](C)[C@H](c3cc(C(F)F)nc4ncnn34)C2)cc(C2CC2)n1 (relative stereo) [Compound 2]	29
C[C@@H]1CCN([C@@H](C)c2ccc(C(F)(F)F)cc2)C[C@H]1c1cc(C(F)F)nc2ncnn12 (relative stereo) [Compound 6]	37
C[C@@H]1CCN([C@H](C)c2ccc(C(F)(F)F)cc2)C[C@H]1c1cc(C(F)F)nc2ncnn12 (relative stereo) [Compound 7]	57
Cc1cc([C@H](C)N2CC[C@@H](C)[C@H](c3cc(C(F)F)nc4ncnn34)C2)cc(Cl)n1 (single isomer, unassigned) [Compound 4]	45
Cc1cc([C@@H](C)N2CC[C@@H](C)[C@H](c3cc(C(F)F)nc4ncnn34)C2)cc(Cl)n1 (single isomer, unassigned) [Compound 5]	55
C[C@@H]1CCN([C@H](C)c2ccc3ncsc3c2)C[C@H]1c1cc(C(F)F)nc2ncnn12 (single isomer, unassigned) [Compound 12]	54
C[C@@H]1CCN([C@@H](C)c2ccc3ncsc3c2)C[C@H]1c1cc(C(F)F)nc2ncnn12 (single isomer, unassigned) [Compound 13]	47
Cc1cc(CN2CC[C@@H](C)[C@@](F)(c3cc(C(F)F)nc4ncnn34)C2)cc(C)n1 (single isomer, unassigned) [Compound 49]	17

From patent US11319321B2, “[1,2,4]triazolo[1,5-a]pyrimidine compounds as PDE2 inhibitors” (Janssen Pharmaceutica NV, priority 2016, dated 2022)
